IC50 data for three compounds are collected here from ChEMBL document CHEMBL1153650, “Imidazole and triazole substituted ether phospholipids: potent antitumor agents” (Bioorg Med Chem Lett, 1997).

Holding throughout (type): functional, cell-based
The subject of one experiment is FHC. Description: In vitro inhibition of FHC normal human colon cell proliferation.
For another experiment, the system named is MCF7. Description: In vitro inhibition of estrogen receptor positive MCF-7 human breast cancer cell proliferation.
The test system of another experiment is HT-29. The experiment is described as follows: In vitro inhibition of the HT-29 transformed human colon cell proliferation.
For the next experiment, the system named is HL-60. The experiment is described as follows: In vitro inhibition of HL-60 human promyelocytic leukemia cell proliferation.
The subject of another experiment is MDA-MB-231. The experiment is described as follows: In vitro inhibition of estrogen receptor negative MDA-MB-231 human breast cancer cell proliferation.

Each structure is given as a SMILES string.

By IC50 is commonly meant the point on the concentration scale where inhibition reaches its midpoint. For `CCCCCCCCCCCCCCCCCCOCC(CCP(=O)([O-])OCC[N+](C)(C)C)n1ccnc1` (configuration not stated), the half-maximal inhibitory concentration (IC50) in the experiment with FHC was determined as 5000 nM; in the experiment with MCF7, 3000 nM; in the experiment on HT-29, 2000 nM; with HL-60, 2000 nM; in the experiment with MDA-MB-231, 4500 nM.
On to `CCCCCCCCCCCCCCCCCCOCC(CCP(=O)([O-])OCC[N+](C)(C)C)n1cncn1` (configuration not stated), for which the half-maximal inhibitory concentration (IC50) in the experiment on MCF7 amounted to 3000 nM; in the experiment on HL-60 it was 3000 nM; with MDA-MB-231, 6000 nM.
Regarding `CCCCCCCCCCCCCCCCCCOCC(COP(=O)([O-])OCC[N+](C)(C)C)OC` (configuration not stated) [EDELFOSINE], the IC50 in the experiment with FHC was 45000 nM; in the experiment on HT-29 it was 2000 nM; in the experiment on HL-60 it was 2000 nM; in the experiment on MDA-MB-231, 5000 nM.
